pIC50: −log10 of the molar value.
Legend:
M-14 melanoma cells = assay: Sulforhodamine B cytotoxicity, M-14; type: cell-based; conditions: Homo sapiens, M14
Experimental: (§1) In addition to the screening already discussed, several of the before-described compounds and chimeras were screened against several or all of a panel of ten to twenty-five cancerous cell lines as target cells and seven "normal" cell preparations. This screening utilized a sulforhodamine B cytotoxidity assay as discussed below.
(§2) IC50 values; i.e., the concentration of Compound required to kill one-half of the treated cells, were then calculated.
UCLA M-14 Dr. R. Reisfeld of The Scripps Research

[1] = system: EMT6 mammary tumor in Balb/c BYJ mice; assay: In vivo EMT6 mammary tumor in Balb/c BYJ mice; set-up: species or system mouse; conditions: 10 mg/kg on days 1, 5 and 9
Experimental: The data of FIG. 10 illustrate a further in vivo study using compound 153. Here, groups of 6-10 week old, female Balb/c BYJ mice (obtained from The Scripps Research Institute breeding colony, La Jolla, Calif.) (8 per group) were inoculated with 5×10^5 cells of the EMT6 tumor cell line, a mammary tumor. The mice were then treated with normal saline (control) or normal saline containing 10 mg/kg of Compound 153 (study) on days 1, 5 and 9 after the inoculation.

[2] = system: P-388 mouse lymphoma cells; assay: Sulforhodamine B cytotoxicity, P-388; type: cell-based; conditions: Mus musculus, P388; P-388; read-out: IC50
Experimental: as §1, §2

[3] = system: multiple-drug resistant TCAF-DAX cell line; assay: Cytotoxicity, TCAF-DAX; type: cell-based
Experimental: as §1, §2

[4] = system: DNA in Molt-4 leukemia cells; assay: DNA strand breakage in Molt-4 cells (ethidium bromide fluorimetry); type: cell-based
Experimental: In another study, Molt-4 leukemia cells were treated with ethidium bromide, which led to uptake by DNA through intercalcation and consequent fluorescence. Exposure of those cells to Compound 153 (10 μM at 10^7 cells/ml) led to rapid DNA strand breakage as determined by fluorimetry, resulting in 95 percent destruction after four hours at 37° C. […] These observations implicate DNA strand cleavage as the direct cause of cell destruction in these studies.

H-358 lung cells = assay: Sulforhodamine B cytotoxicity, H-358; type: cell-based; conditions: Homo sapiens, NCI-H358
Experimental: as §1, §2

TCAF cell line = assay: Cytotoxicity, TCAF; type: cell-based
Experimental: as §1, §2

[5] = system: UCLA P-3 non-small cell lung carcinoma cells; assay: Sulforhodamine B cytotoxicity, UCLA-P3; type: cell-based, human; conditions: Homo sapiens, UCLA P-3, non small cell lung P-3; read-out: IC50
Experimental: as §1, §2
UCLA P-3 Dr. D. Morton, University of California, […]

U-251 MG glioma cells = assay: Sulforhodamine B cytotoxicity, U-251; type: cell-based; conditions: Homo sapiens
Experimental: as §1, §2

[6] = system: H-322 lung carcinoma cells; assay: Sulforhodamine B cytotoxicity, H-322; type: cell-based; conditions: NCI-H322; H-322; read-out: IC50
Method in brief: (§3)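 Values given are IC50s, defined as the compound concentration at which half the treated cells were killed in a sulforhodamine B assay. The panel screened comprised ten to twenty-five tumour lines and seven normal cell preparations.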

[7] = system: Mel-7 breast carcinoma cells; assay: Sulforhodamine B cytotoxicity, Mel-7 (breast carcinoma); type: cell-based; conditions: Breast carcinoma cell
Experimental: as §1, §2

[8] = system: Ovcar-4 ovarian carcinoma cells; assay: Sulforhodamine B cytotoxicity, Ovcar-4; type: cell-based; conditions: Homo sapiens
Experimental: as §1, §2

Chemical stability = type: physicochemical
[9] = system: MOLT-4 (Leukemia) cell line; assay: cells; type: cell-based
Method in brief: as §3

[10] = system: Capan-1 pancreatic carcinoma cells; assay: Sulforhodamine B cytotoxicity, Capan-1; type: cell-based; conditions: Homo sapiens, CAPAN-1, Capan-1; read-out: IC50
Method in brief: as §3

U-87 UG astocytoma cells = assay: Sulforhodamine B cytotoxicity, U-87; type: cell-based
Experimental: as §1, §2

RPMI-8226 cells = assay: Sulforhodamine B cytotoxicity, RPMI-8226; type: cell-based; conditions: Homo sapiens
Experimental: as §1, §2

M-21 melanoma cells [11] = assay: Inhibition of [3H]leucine uptake (protein synthesis) in M-21 cells; type: cell-based, human; conditions: 72 hours incubation
Experimental: (§4) These determinations were made by standard tissue growth procedures using RPMI tissue culture medium supplemented with 10 percent fetal bovine serum plated at 10^4 cells in 100 μl of medium in 96-well tissue culture plates. The cells were permitted to adhere for 24 hours, and the dilutions of Compound 153 were added in 10 μl volumes and incubated for 72 hours at 37° C. in a humidified atmosphere containing five percent CO2. The plates were then washed three times with tissue culture medium and again incubated for 24 hours, as above. Each well received 1 μCi of ^3 H-labeled substrate, and after an additional 16 hours of incubation, cells were collected on glass fiber filters with a Skatron cell harvester. Finally, the filters were placed in Ecolume scintillation cocktail (ICN, Irvine, Calif.), and radioactivity was measured with a Beckeman scintillation counter. Incorporation of the ^3 H label was calculated as a percentage of untreated controls.

[12] = system: SK-Mel-28, M-14, M-21, Capan-1, Ovcar-3, Ovcar-4, UCLA-P-3, U-87, U-251 and Molt-4 cell lines; type: cell-based; conditions: ten tumor cell lines
Experimental: In other studies, IC50 values were determined for the anti-tumor agents dynemicin A, calicheamicin γ1^I, taxol, vinblastine/vincristine, doxorubicin, actinomycin D and bleomycin sulfate against the SK-Mel-28, M-14, M-21, Capan-1, Ovcar-3, Ovcar-4, UCLA-P-3, U-87, U-251 and Molt-4 cell lines.

Water solubility = type: physicochemical
[13] = system: Ovcar-3 ovarian carcinoma cells; assay: Sulforhodamine B cytotoxicity, Ovcar-3; type: cell-based; conditions: Homo sapiens, OVCAR-3, Ovcar-3; read-out: IC50
Method in brief: as §3

M-21 melanoma cells [14] = assay: Inhibition of [3H]thymidine uptake (DNA synthesis) in M-21 cells; type: cell-based, human; conditions: 72 hours incubation
Experimental: as §4

[15] = system: HL-60 promyeocytic leukemia cells; assay: Sulforhodamine B cytotoxicity, HL-60; type: cell-based; conditions: Homo sapiens, HL-60, HL-60; read-out: IC50
Method in brief: as §3

H-522 lung cells = assay: Sulforhodamine B cytotoxicity, H-522; type: cell-based; conditions: Homo sapiens, NCI-H522
Experimental: as §1, §2

In the case of `O=C(OCCS(=O)(=O)c1ccccc1)N1c2ccc(OCCO)cc2C23OC24CCCC3C#C/C=C\C#CC14` (centres unmarked) [Compound 153], the pIC50 (M-14 melanoma cells) was 5.80, the “tumor growth of treated tumors” value [1] was “much slower, and almost linear” and the “tumor volume vs control” value ([1]; day 8) was “slight difference in the average volume of the tumors, with the study group having a lower tumor burden”. The “control group's average tumor volume relative to study group” value ([1]; day 20) was “about seven”, the pIC50 [2] was 8.34 and the pIC50 [3] was 8.77. The “DNA strand breakage (destruction)” value ([4]; 10 μM at 10^7 cells/ml, four hours at 37° C.) was 95%, the “delay of cell death relative to DNA strand breakage” value ([4]; 10 μM, Molt-4 cells) was “two” and the pIC50 (H-358 lung cells) was 6.70. It also gave a pIC50 (TCAF cell line) of 8.96, a pIC50 [5] of 7.01 and a pIC50 (U-251 MG glioma cells) of 6.41. The pIC50 [6] was 6.41, the pIC50 [7] was 6.11 and the pIC50 [8] was 6.11. For the same molecule, the chemical stability (Chemical stability) was “decompose cleanly to form phenyl vinyl sulfone and the corresponding free amine enediyne Compound 153a”, the time remaining intact (Chemical stability; pH 7.0 phosphate buffer (100 mM), 37° C.) was ≥ 1.5 h and the viability at 0.01 µM ([9]; Homo sapiens, 72 h, 10^-8 M, Molt-4 tumor cells) was 20%. The “relative potency (qualitative)” value ([9]; Molt-4) was “highest potency amongst all of the agents assayed against the Molt-4 leukemia cell line”, the pIC50 [10] was 8.41 and the pIC50 (U-87 UG astocytoma cells) was 6.11. The pIC50 (RPMI-8226 cells) was 8.11, the “inhibition of [3H]leucine uptake (protein synthesis)” value (M-21 melanoma cells [11]) was “severely impair” and the “relative potency among agents across cell lines” value [12] was “comparable to most of the other agents against the other cell lines”. For the same molecule, the water solubility (Water solubility) was “increased solubility of Compound 153 in water compared to the other enediyne compounds”, the pIC50 [13] was 6.11 and the “inhibition of [3H]thymidine uptake (DNA synthesis)” value (M-21 melanoma cells [14]) was “severely impair the ability of M-21 melanoma cells to synthesize DNA”. The pIC50 [15] was 10.44 and the pIC50 (H-522 lung cells) was 7.01.
